Assay results from US8871751B2, “Compositions and methods relating to nuclear hormone and steroid hormone receptors including inhibitors of estrogen receptor alpha-mediated gene expression and inhibition of breast cancer” (The Board of Trustees of the University of Illinois, priority 2008, dated 2014).
Values belong to the compound of their own block, whether it stands above or below them.

What was measured:
[1] = tested on: ERα negative MDA-MB-231 cells; experiment: MDA-MB-231 cell growth / toxicity assay (MTS); type: cell-based, human
Procedure: ERα negative MDA-MB-231 human breast cancer cells were used to test for generalized toxicity of the test compounds. To parallel the reporter gene assays in stably transfected T47D breast cancer cells, 5,000 MDA-MB-231 cells per well were plated in a 96 well plate. The cells were maintained in the medium described above for the T47D cells. One day after plating, the same concentration of test compound used in the reporter gene assay (up to 30 μM) was added. After 24 h the MTS assay was carried out as described above. A more stringent toxicity assay parallels the assay for inhibition of estrogen-dependent growth of BG-1 cells. 250 MDA-MB-231 cells were plated per well and maintained and assayed as described for the BG-1 cells. Several compounds without detectable toxicity in the 24-h assay inhibited MDA-MB-231 cell growth in the 5-6 day assay.
Assays for Cell Growth and Viability. Cells were maintained in the media listed above containing CD-treated serum for at least 4 days prior to the experiment. To minimize cell aggregation, MCF-7 cells were harvested in 10 mM Hepes, pH 7.4, 1 mM EDTA. Other cell lines were harvested in trypsin-EDTA. 1,000 cells were plated into each well of a 96 well plate. For slow growing ZR-75 cells, 2,000 cells were plated/well. The cells were maintained in medium containing CD-treated serum for 24 hours. At 24 hours the medium was changed and E2 and DMSO vehicle or TPSF in DMSO was added. The medium was replaced after 2 days (except for BT474 cells whose medium was not changed). After 4 days viable cells were determined using a cell viability test, Promega CellTiter 96 Aqueous One Solution Cell Proliferation Assay (MTS) (Promega, Wis.).

ER negative HeLa cells = details: 10-20 μM; cited from earlier work
GR = target: T1, GR (Rattus norvegicus, UniProt P06536); experiment: GR transactivation, MMTV-luciferase reporter in T47D cells; type: cell-based, human
T1 construct: expressed in transfected cells; host or cells: T47D/A1-2
T1 sequence (P06536 1-795): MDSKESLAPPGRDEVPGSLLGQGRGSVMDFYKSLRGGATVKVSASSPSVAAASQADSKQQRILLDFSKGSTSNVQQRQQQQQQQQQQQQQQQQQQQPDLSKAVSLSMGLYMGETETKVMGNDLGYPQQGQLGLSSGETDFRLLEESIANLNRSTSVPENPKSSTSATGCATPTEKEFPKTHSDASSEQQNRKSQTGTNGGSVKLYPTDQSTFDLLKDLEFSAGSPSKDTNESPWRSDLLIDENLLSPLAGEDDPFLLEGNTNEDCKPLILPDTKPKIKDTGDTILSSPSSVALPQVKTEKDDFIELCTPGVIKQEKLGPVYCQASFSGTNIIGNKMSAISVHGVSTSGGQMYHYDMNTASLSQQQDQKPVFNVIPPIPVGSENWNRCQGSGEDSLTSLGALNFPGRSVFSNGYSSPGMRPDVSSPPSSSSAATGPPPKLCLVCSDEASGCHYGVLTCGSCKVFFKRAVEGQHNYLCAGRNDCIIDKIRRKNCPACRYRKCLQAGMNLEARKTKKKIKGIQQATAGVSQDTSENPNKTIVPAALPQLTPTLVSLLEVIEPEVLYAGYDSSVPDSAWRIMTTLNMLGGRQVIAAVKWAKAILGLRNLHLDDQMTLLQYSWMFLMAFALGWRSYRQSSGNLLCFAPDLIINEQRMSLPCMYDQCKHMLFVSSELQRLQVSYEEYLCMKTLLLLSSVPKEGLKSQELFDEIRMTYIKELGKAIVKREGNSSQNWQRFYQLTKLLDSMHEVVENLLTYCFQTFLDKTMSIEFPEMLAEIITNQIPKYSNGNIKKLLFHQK
Procedure: The T47D-KBluc cells stably express an (ERE)3-luciferase reporter gene (38). Cells were maintained in phenol red-free RPMI 1640 with 2 mM L-glutamine, 1.5 g/l sodium bicarbonate, 4.5 g/l glucose, 10 mM Hepes, pH 7.5, 1 mM sodium pyruvate, 10% FBS (Atlanta Biological, Atlanta, Ga.) and antibiotics. Four days before E2 induction, the cells were switched to the above medium, with 10% 2× charcoal-dextran-treated calf serum instead of FBS. 200,000 cells/well were transferred to each well of a 24-well plate. After 24 h the indicated concentrations of the test compounds were added in DMSO and E2 was added to 20 pM. After 24 h cells were washed once in PBS, and 150 μl 1× Passive Lysis Buffer (Promega, Madison Wis.) was used to lyse the cells. Luciferase activity was determined using firefly luciferase reagents from Promega (Madison, Wis.). T47D cells stably transfected to express GR and a mouse mammary tumor virus luciferase reporter that responds to liganded GR and PR were maintained and assayed in medium containing 5 nM progesterone for PR assays, or 2.5 nM dexamethsaone for GR assays, essentially as described (39).
Reporter Gene Assays. TPSF was identified by reporter gene assays comparing the ability of ˜200 compounds structurally related to TPBM (see reference 19) to inhibit transcription of a stably transfected (ERE)3-luciferase reporter gene in T47D-KBluc breast cancer cells (20). AR was assayed in stably transfected HeLa cells and GR was assayed in stably transfected T47D cells maintained as described above. Four days before each experiment the cells were switched to medium containing CD-treated serum as described above. The HeLaAR cells were plated at 100,000 cells/well and the T47D/A1-2 and T47D-KBluc cells were plated at 200,000 cells/well in 1 ml of their respective media in 24-well plates. After 24 hours the indicated concentrations of E2, dihydrotestosterone (DHT) or dexamethasone (Dex) and DMSO vehicle, with or without TPSF, were added to each well. After 24 hours, the cells were washed once in phosphate buffered saline and lysed using 100 μl of 1× Passive Lysis Buffer (Promega, Madison Wis.). Luciferase activity was determined using BrightGlo firefly luciferase reagent from Promega (Madison, Wis.).

[2] = Short-term mouse toxicity study; type: in vivo; details: up to 400 mg/kg
ZR-75 cells = details: 5 μM; see Wang 2006; cited from earlier work
BT474 cells = details: 5 μM; see Wang 2006; cited from earlier work

Compound: 4-hydroxytamoxifen [OHT, reference compound]
effect on MDA-MB-231 cells ([1]; 10 μM): killed many
effect on MDA-MB-231 cells ([1]; 20 μM): all the cells were killed
effect in ER negative HeLa cells (ER negative HeLa cells): induce caspase-dependent apoptosis

effect on GR (GR): virtually no effect
Compound: Cn1c(=O)c2[nH]c(Cc3ccc4ccccc4c3)nc2n(C)c1=O [Compound 14147]

Compound: CCCCCCCc1nc2c([nH]1)c(=O)n(C)c(=O)n2C [Compound 101794]
toxicity in a short-term mouse study [2]: no toxicity

Compound: O=C(c1ccc(OCCN2CCCCC2)cc1)c1c(-c2ccc(O)cc2)sc2cc(O)ccc12 [raloxifene]
effect in ER negative HeLa cells (ER negative HeLa cells): induce caspase-dependent apoptosis

Compound: disulfide benzamide [DIBA]
inhibition of growth of ZR-75 cells (ZR-75 cells): ~20%
effect on growth of tamoxifen-resistant BT474 cells (BT474 cells): did not inhibit
